Assays:
GPR84 [1] = target: T1, GPR84 (Homo sapiens, UniProt Q9NQS5); assay: Human neutrophil migration inhibition assay, Embelin as chemotactic agent; assay type: cell-based; settings: for inhibition at 0.1 µM / inhibition at 1 µM / inhibition at 10 µM: 5 μM Embelin; for inhibition at 0.1 µM: compound 0.1 μM, read-out: Percentage of chemotaxis inhibition (PIN) @ 0.1 μM; for inhibition at 1 µM: compound 1 μM, read-out: Percentage of chemotaxis inhibition (PIN) @ 1 μM; for inhibition at 10 µM: compound 10 μM, read-out: Percentage of chemotaxis inhibition (PIN) @ 10 μM; for IC50: human neutrophils, Embelin as chemotactic agent, read-out: Embelin-induced neutrophil chemotaxis IC50; for induction of neutrophil chemotaxis: GPR84 agonist used as chemotactic agent
T1 sequence (Q9NQS5 whole entry): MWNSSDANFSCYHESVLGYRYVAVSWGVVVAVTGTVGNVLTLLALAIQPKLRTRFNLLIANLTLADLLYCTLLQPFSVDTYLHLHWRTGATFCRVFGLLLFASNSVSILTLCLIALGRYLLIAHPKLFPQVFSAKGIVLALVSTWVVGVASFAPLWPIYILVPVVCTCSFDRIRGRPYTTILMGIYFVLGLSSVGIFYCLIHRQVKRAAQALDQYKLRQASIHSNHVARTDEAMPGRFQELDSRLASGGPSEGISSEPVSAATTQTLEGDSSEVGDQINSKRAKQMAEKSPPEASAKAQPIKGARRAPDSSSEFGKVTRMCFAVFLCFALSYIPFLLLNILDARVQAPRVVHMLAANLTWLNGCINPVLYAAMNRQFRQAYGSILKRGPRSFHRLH

GPR84 [2] = target: T1, GPR84; assay: Functional GPR84 activation assay: GTP-γS binding assay; assay type: biochemical; parameters: expressed in transfected cells; settings: membranes over expressing GPR84; 3,3′ di indolylmethane at EC80; read-out: GTPgS binding EC50
Procedure: The following assay can be used for determination of GPR84 activation.
The assay is performed in a 96 well plate where the following reagents were added. […] In a last step, 30 μL of a mixture consisting of membranes-GTPγS-SpA beads is added [mixture consists of 20 μg/well membranes derived from stable cell line over expressing GPR84 (membranes are pre-incubated with 0.1 μM GDP for 15 min at 4° C.), 0.1 nM [^35S]GTPγS (Perkin Elmer, NEG030) and 0.5 mg/well PVT-WGA SpA beads (Perkin Elmer, RPNQ0001)]. All components are diluted in assay buffer containing 20 mM Hepes pH 7.4; 5 mM MgCl2; 250 mM NaCl; 0.05% BSA; 75 ug/mL saponin. Reactions are incubated for 90 min at room temperature followed by centrifugation at 2000 rpm for 15 min. Plates are read on a Topcount reader (Perkin Elmer) immediately after centrifugation (readout time, 1 min/well).

[3] = tested on: IL8-stimulated chemotaxis of neutrophils; assay: Human neutrophil migration assay, IL8 as chemotactic agent; settings: for inhibition at 0.1 µM: read-out: Percentage of chemotaxis inhibition (PIN) @ 0.1 μM; for inhibition at 1 µM: read-out: Percentage of chemotaxis inhibition (PIN) @ 1 μM; for inhibition at 10 µM: read-out: Percentage of chemotaxis inhibition (PIN) @ 10 μM
Procedure: In the neutrophil migration assay, neutrophils, freshly isolated from buffy coats from human volunteers, are treated with a compound for 30 minutes. Subsequently, the neutrophils are transferred to the upper wells of a Corning HTS transwell 96 permeable support system, of which the lower wells are filled with a Embelin solution.
A human buffy coat is diluted with an equal volume of ice cold DPBS. 20 mL of the diluted buffy coat was gently mixed with 4 mL of ACD buffer (140 mM citric acid, 200 mM sodium citrate and 220 mM dextrose). Then, 12 mL of the 6% dextran/0.9% NaCl solution (15 g dextran T2000 and 2.25 g NaCl dissolved in 250 mL H2O) is added to the mixture and the samples are inverted gently up to 20 times. The total volume is transferred to a new recipient and incubated at room temperature for 1 h for complete separation of the two phases to occur. The yellowish supernatant is then transferred to a clean centrifugation tube and centrifuged for 12 minutes at 1300 rpm and 4° C. After centrifugation, the supernatant is discarded and the remaining cell pellet is rapidly resuspended in 12 mL of ice-cold H2O for red blood cell lysis to occur. After 20 seconds, 4 mL of ice-cold 0.6 M KCl is added.
A cell suspension of 8.9×10^6 cells per milliliter is prepared. 20 μL of compound solution in chemotaxis buffer is added to 180 μL cell suspension. The mixture is incubated at 37° C. for 30 minutes with intermediate resuspension of the cells after 15 minutes. […] The receiver well of the transwell system is then filled with 200 μL chemotaxis buffer containing compound and chemotactic agent (Embelin). After incubation at 37° C. in 5% CO2 for 1 h, the upper plate of the transwell system was removed and the cell suspension in the receiver plate is transferred to a 96-well V-bottom plate. 50 μL of DPBS is added to the receiver plate to prevent remaining cells from drying out. The V-bottom plate is centrifuged for 6 minutes at 1500 rpm. The supernatant is removed and the cells are resuspended in 50 μL DPBS. The cells are then transferred back to the receiver plate of the transwell system. […] The plate is incubated for 10 minutes in the dark, while shaking. 170 μL of cell lysate is then transferred to a white 96-well plate and luminescence is measured. The detected luminescent signal is considered as linearly related to the number of cells having migrated from the upper well to the receiver well.
The same assay as described above is also performed using IL8 (25 ng/mL) as a chemotactic agent instead of Embelin.

[4] = tested on: tobacco smoke-induced pulmonary inflammation; assay: Mouse tobacco smoke model; assay type: in vivo; settings: C57BL/6J mice, 4 daily tobacco smoke exposures; data not shown
Source text: To investigate test compounds, animals are divided into several groups: intact (no treatment, n=5), diseased (TS; vehicle alone, n=10), Roflumilast as reference (TS; Roflumilast n=10), and the test compound (TS; […]=10). […] At the end of 4 days, the numbers of macrophages, epithelial cells, neutrophils and lymphocytes are counted in the BAL. BAL was further analyzed for gene expression and protein level. Lung tissue is dissected for histological analysis, gene expression and protein level measurement.

GPR84 [5] = target: T1, GPR84; parameters: expressed in transfected cells; settings: Wang 2006; WO 2007/027661; cited from earlier work
[6] = tested on: RAW264.7 murine macrophage-like cells; settings: RAW264.7 cells stimulated with LPS; cited from earlier work
[7] = tested on: chronic DSS-induced colitis; assay: Mouse chronic DSS-induced inflammatory bowel disease model; assay type: in vivo; settings: female BALB/c mice, p.o., data not shown
Source text: The compounds identified using the assay method described in Example 2, or others herein, can be further validated in vivo using known disease models. The mouse chronic DSS-induced inflammatory bowel disease model (IBD) is a well validated disease model for inflammatory bowel disease (Wirtz S. et al., 2007 Nature Protocols 2, 541-546; Sina C. et al., 2009 J. Immunol 183 7514-7522).
To induce a chronic colitis, female BALB/c mice are fed with 4% dextran sodium sulfate (DSS) dissolved in drinking water for 4 days, followed by 3 days of regular drinking water. This cycle is repeated three times. This protocol allows inducing a strong colitis while avoiding high mortality rates. Animals are divided into several groups: • intact (water; vehicle alone, n=10), • diseased (DSS; vehicle alone, n=10), • sulfazalazine used as reference (DSS; sulfazalazine, p.o., n=10) and • the tested compound (DSS; test cpd, p.o., n=10).
Clinical parameters are measured every other day. The disease activity index (DAI) is a composite measure combining of the individual scores for weight loss, stool consistency and rectal bleeding. Mice are sacrificed at day 20 of the experiment according to the protocol introduced by Sina et al. (2009). At sacrifice time, the complete colon is removed and rinsed with sterile PBS. […]

Structure (SMILES)	inhibition at 0.1 µM (GPR84 [1]) [%]	inhibition at 1 µM (GPR84 [1]) [%]	inhibition at 10 µM (GPR84 [1]) [%]	IC50 (GPR84 [1]) [µM]	EC50 (GPR84 [2]) [µM]	inhibition at 0.1 µM [3] [%]	inhibition at 1 µM [3] [%]	inhibition at 10 µM [3] [%]	percentage inhibition of neutrophil counts in BAL [4]	induction of neutrophil chemotaxis (GPR84 [1])	GPR84 agonist activity (GPR84 [5])	secretion of interleukin-12 p40 subunit (IL-12 p40) [6]	effect against chronic inflammatory bowel disease [7]
O=c1nc(OCC2COCCO2)cc2n1CCc1cc(C#CCNc3ccccc3)ccc1-2 (stereo not drawn) [Cpd 3, 2-([1,4]Dioxan-2-ylmethoxy)-9-(3-phenylamino-prop-1-ynyl)-6,7-dihydro-pyrimido[6,1-a]isoquinolin-4-one]	38	81	72	0.00634	0.025	2	1	-13					
O=c1nc(OC[C@@H]2COCCO2)cc2n1CCc1cc(OCC3CCCCO3)ccc1-2 (stereo partly drawn) [Cpd 9, 2-((S)-1-[1,4]Dioxan-2-ylmethoxy)-9-(tetrahydro-pyran-2-ylmethoxy)-6,7-dihydro-pyrimido[6,1-a]isoquinolin-4-one]	64	94	88	0.0408	0.075	25	28	24					
O=C(Nc1c(Cl)cncc1Cl)c1ccc(OC(F)F)c(OCC2CC2)c1 [Roflumilast]									around 60%				
c1ccc2c(Cc3c[nH]c4ccccc34)c[nH]c2c1 [3,3′ di indolylmethane, reference compound]										induce neutrophil chemotaxis	some GPR84 agonist activity		
CCCCCCCCCC(=O)[O-].[Na+] [sodium decanoate, reference compound]										induce neutrophil chemotaxis			
CCCCCCCCCC(=O)O [capric acid]												dose-dependently increased	
CCC(C)(C)CNc1ccc2c(c1)CCn1c-2cc(OC[C@@H]2COCCO2)nc1=O [Cpd 8, 9-(2,2-Dimethyl-butylamino)-2-((S)-1-[1,4]dioxan-2-ylmethoxy)-6,7-dihydro-pyrimido[6,1-a]isoquinolin-4-one]	52	95	103	0.0414	0.069	9	15	55					
O=c1nc(OC[C@H]2COCCO2)cc2n1CCc1cc(COC3CCCC3)ccc1-2 [Cpd 6, 9-Cyclopentyloxymethyl-2-((R)-1-[1,4]dioxan-2-ylmethoxy)-6,7-dihydro-pyrimido[6,1-a]isoquinolin-4-one]						20	15	35					
O=c1nc(OC[C@@H]2COCCO2)cc2n1CCc1cc(CCCNc3ccccc3)ccc1-2 [Cpd 10, 2-((S)-1-[1,4]Dioxan-2-ylmethoxy)-9-(3-phenylamino-propyl)-6,7-dihydro-pyrimido[6,1-a]isoquinolin-4-one]	71	87	80	0.0093	0.008	13	7	24					
CCCCCCCCCCCC1=C(O)C(=O)C=C(O)C1=O [Embelin, 2,5-dihydroxy-3-undecyl-2,5-cyclohexadiene-1,4-dione, reference compound]										induce neutrophil chemotaxis	some GPR84 agonist activity		
CC(O)CCCc1ccc2c(c1)CCn1c-2cc(OC[C@@H]2COCCO2)nc1=O (stereo partly drawn) [Cpd 11, 2-((S)-1-[1,4]Dioxan-2-ylmethoxy)-9-(4-hydroxy-pentyl)-6,7-dihydro-pyrimido[6,1-a]isoquinolin-4-one]	66	90	86	0.0039		7	0	12					
O=c1nc(OCC2COCCO2)cc2n1CCc1cc(COC3CCCC3)ccc1-2 (stereo not drawn) [Cpd 4, 9-Cyclopentyloxymethyl-2-([1,4]dioxan-2-ylmethoxy)-6,7-dihydro-pyrimido[6,1-a]isoquinolin-4-one]						3	3	19					
O=c1nc(OCC2COCCO2)cc2n1CCc1cc(CCC(O)c3cccnc3)ccc1-2 (stereo not drawn) [Cpd 7, 2-([1,4]Dioxan-2-ylmethoxy)-9-(3-hydroxy-3-pyridin-3-yl-propyl)-6,7-dihydro-pyrimido[6,1-a]isoquinolin-4-one]	54	90	81	0.0834	0.041	18	22	13					
CCCCCCCCCCC(=O)O [undecanoic acid]												dose-dependently increased	
CC(C)C#Cc1ccc2c(c1)CCn1c-2cc(OC[C@@H]2COCCO2)nc1=O [Cpd 5, 2-((S)-1-[1,4]Dioxan-2-ylmethoxy)-9-(3-methyl-but-1-ynyl)-6,7-dihydro-pyrimido[6,1-a]isoquinolin-4-one]	73	97	96	0.0622	0.077	30	29	48					
O=C(O)c1cc(/N=N/c2ccc(S(=O)(=O)Nc3ccccn3)cc2)ccc1O [sulfazalazine]													protective effect
O=c1nc(OCC2COCCO2)cc2n1CCc1cc(OCc3noc(C4CC4)n3)ccc1-2 (stereo not drawn) [Cpd 1, 9-(5-Cyclopropyl-[1,2,4]oxadiazol-3-ylmethoxy)-2-([1,4]dioxan-2-ylmethoxy)-6,7-dihydro-pyrimido[6,1-a]isoquinolin-4-one]	69	86	89	0.0104	0.036	1	-11	17					
CCCC(O)C#Cc1ccc2c(c1)CCn1c-2cc(OCC2COCCO2)nc1=O (stereo not drawn) [Cpd 2, 2-([1,4]Dioxan-2-ylmethoxy)-9-(3-hydroxy-hex-1-ynyl)-6,7-dihydro-pyrimido[6,1-a]isoquinolin-4-one]	86	94	90	0.00274	0.04	13	-6	20					
CCCCCCCCCCCC(=O)O [lauric acid]												dose-dependently increased	

— patent US9945843B2, “Methods for identifying compounds that inhibit G protein-coupled receptor (GPR84) agonist-stimulated chemotaxis” (GALAPAGOS NV, priority 2011, dated 2018)
